Reference: patent publication EP4768499A1, “MACROCYCLIC PEPTIDE COMPOUND HAVING CELL MEMBRANE PERMEABILITY AND METABOLIC STABILITY, AND LIBRARY CONTAINING SAME” (Chugai Seiyaku Kabushiki Kaisha, priority 2023, dated 2025)
Positions of bridges follow the written chain, without caps; N, C: chain ends. Non-standard residues stand in square brackets, D forms with d. Residues, ends and D or L forms follow the SMILES beside them. *: point of attachment. NMeF = CN[C@@H](Cc1ccccc1)C(=O)O; NMeI = CC[C@H](C)[C@H](NC)C(=O)O; NMeT = CN[C@H](C(=O)O)[C@@H](C)O; hPhe = N[C@@H](CCc1ccccc1)C(=O)O; NMeL = CN[C@@H](CC(C)C)C(=O)O; NMeV = CN[C@H](C(=O)O)C(C)C; d(β3hA) = C[C@@H](N)CC(=O)O; NMeAbu = CC[C@H](NC)C(=O)O; NMeA = CN[C@@H](C)C(=O)O; Piperidide = C1CCN(*)CC1; Abu = CC[C@H](N)C(=O)O; βAla = NCCC(=O)O; Sar = CNCC(=O)O; tBu = CC(C)(C)*

Tests used:
[1] = Metabolic stability test: liver microsomal stability assay; assay type: in vitro ADME, mouse; conditions: mouse liver microsomes 0.5 mg protein/mL, compound 1 µM; for microsomal CLint at 1 µM: male, pH 7.4, presence of NADPH, read-out: Mouse Hepatic Microsome CLh,int NADPH(+); for Mouse Hepatic Microsome CLh,int NADPH(-): absence of NADPH
Method: Under the presence and absence of NADPH, a microsome solution prepared to a concentration of 0.5 mg protein/mL using 100 mM phosphate buffer (pH 7.4) with mouse liver microsomes (male, Corning Incorporated, USA) and the compound at a concentration of 1 µM were subjected to a metabolic reaction for 22 minutes, 44 minutes, or 66 minutes. Protein removal processing was performed over time using acetonitrile, and the remaining amount of unchanged compound was analyzed using LCMS to calculate the intrinsic hepatic clearance (CLh, int) (Table 6).

Caco-2 cells = test: Membrane permeability test using Caco-2 cells with preincubation; assay type: in vitro ADME; conditions: Caco-2 cells, preincubation 20 to 24 hours; apical FaSSIF/HBSS 1% DMSO pH 6.0, basal HBSS 4% BSA pH 7.4; basal sample at 180 minutes
Method: (§1) The permeability coefficient (Caco-2 Papp (cm/sec)) is calculated using a numerical expression 1. [Expression 1] Papp = (1)/(C1 (0) × S) × (dQ)/(dt) [formula] dQ/dt represents the permeation rate of drug (the amount of drug appearing on the Basal side per unit time), S represents the total surface area of cells, and C1(0) represents the concentration of drug added on the Apical side.
(§2) Using a mixed medium of FaSSIF containing 1% DMSO and DMEM as the apical medium, and DMEM as the basal medium, Caco-2 cells and peptide compounds are preincubated for 20 to 24 hours under conditions of 5% CO2, 37°C, and 80 rpm. Afterward, the culture medium on the Apical side and the Basal side are aspirated and washed, the peptide compound was added to a FaSSIF/HBSS buffer solution containing 1% DMSO (1% DMSO) (pH 6.0) at the Apical side, a HBSS buffer solution containing 4% BSA (pH 7.4) was added to the Basal side, and measurement of membrane permeability is started. Each well is shaken under 5% CO2 at 37°C and 80 rpm, and at 180 minutes after the start of shaking, a sample on the Basal side is collected. The amount of peptide compounds in the sample was measured using LCMS, and the membrane permeability coefficient was calculated from the permeation amount (Table 7). When calculating the membrane permeability coefficient (Papp) from the permeation amount, the following expression can be used. Papp = (dQ)/(dt) × (1)/(C1 (0) × S) [formula]
(§3) dQ/dt represents the permeation rate of drug (the amount of drug appearing on the Basal side per unit time), C1(0) represents the concentration of drug added on the Apical side, and S represents the total surface area of cells.

[2] = as above; assay type: in vitro ADME; conditions: Caco-2; preincubation 20 to 24 hours; Apical FaSSIF/HBSS pH 6.0, Basal HBSS 4% BSA pH 7.4; 180 minutes; read-out: Caco2 Papp
Method: as §1, §2, §3

**Q.** With CC[C@H](C)[C@@H]1NC(=O)[C@H](C)N(C)C(=O)C[C@@H](C(=O)N2CCCCC2)NC(=O)[C@H](CC)N(C)C(=O)[C@H](COC(C)(C)C)NC(=O)[C@H](CC(C)C)N(C)C(=O)[C@H](C)N(C)C(=O)[C@H](CC(C)C)N(C)C(=O)[C@H](Cc2ccccc2)N(C)C(=O)CN(C)C(=O)[C@H]([C@@H](C)O)NC(=O)[C@H](CC(C)C)N(C)C(=O)[C@H](C(C)C)N(C)C(=O)[C@H](Cc2ccccc2)N(C)C1=O [pd004] ([NMeA]I[NMeF][NMeV][NMeL]T[Sar][NMeF][NMeL][NMeA][NMeL]S(tBu)[NMeAbu]D-Piperidide; lactam N-14) as the compound, how does the microsomal CLint at 1 µM [1] read?
**A.** The microsomal CLint at 1 µM was 36.2 µL/min/mg.

**Q.** And the “Mouse Hepatic Microsome CLh,int NADPH(-)” value [1]?
**A.** Its value is 27.4 µL/min/mg Protein.

**Q.** And the “Caco2 Papp (10^-6 cm/sec)” value (Caco-2 cells)?
**A.** The value was 0.82 10^-6 cm/sec.

**Q.** What about the Papp A→B [2] of the same compound?
**A.** Its Papp A→B is 0.82 ×10⁻⁶ cm/s.

**Q.** With CC[C@@H]1NC(=O)[C@H](C)N(C)C(=O)[C@H](CC(C)C)N(C)C(=O)[C@H]([C@@H](C)O)N(C)C(=O)[C@H](CC(C)C)N(C)C(=O)CCNC(=O)[C@H](Cc2ccccc2)N(C)C(=O)CN(C)C(=O)C[C@@H](C(=O)N2CCCCC2)NC(=O)[C@H](C(C)C)N(C)C(=O)[C@H](C)N(C)C(=O)[C@@H]2CCCN2C(=O)[C@H](C(C)C)NC(=O)[C@H](Cc2ccccc2)N(C)C1=O [pd005] ([Sar][NMeF][βAla][NMeL][NMeT][NMeL][NMeA][Abu][NMeF]VP[NMeA][NMeV]D-Piperidide; lactam N-14) as the compound, how does the microsomal CLint at 1 µM [1] read?
**A.** Its microsomal CLint at 1 µM is 1.4 µL/min/mg.

**Q.** And the “Mouse Hepatic Microsome CLh,int NADPH(-)” value [1]?
**A.** Its value is 1.1 µL/min/mg Protein.

**Q.** And the “Caco2 Papp (10^-6 cm/sec)” value (Caco-2 cells)?
**A.** The value was 0.05 10^-6 cm/sec.

**Q.** What about the Papp A→B [2] of the same compound?
**A.** The Papp A→B was 0.05 ×10⁻⁶ cm/s.

**Q.** With CC[C@@H]1NC(=O)[C@H](CC(C)C)N(C)C(=O)[C@H](CC(C)C)NC(=O)CN(C)C(=O)[C@H](C(C)C)NC(=O)[C@H](CC(C)C)N(C)C(=O)[C@H](C(C)C)NC(=O)[C@H](Cc2ccccc2)N(C)C(=O)[C@H](C)N(C)C(=O)[C@@H](C)NC(=O)C[C@@H](C)NC(=O)[C@H](C(C)C)N(C)C(=O)[C@H](CC)N(C)C(=O)[C@H](CCc2ccccc2)NC1=O [pd006] (cyclo([Abu][hPhe][NMeAbu][NMeV][d(β3hA)][dA][NMeA][NMeF]V[NMeL]V[Sar]L[NMeL])) as the compound, how does the microsomal CLint at 1 µM [1] read?
**A.** Its microsomal CLint at 1 µM is 51.4 µL/min/mg.

**Q.** And the “Mouse Hepatic Microsome CLh,int NADPH(-)” value [1]?
**A.** Its value is 30.0 µL/min/mg Protein.

**Q.** And the “Caco2 Papp (10^-6 cm/sec)” value (Caco-2 cells)?
**A.** The value was <0.11 10^-6 cm/sec.

**Q.** What about the Papp A→B [2] of the same compound?
**A.** The Papp A→B was < 0.11 ×10⁻⁶ cm/s.

**Q.** With CC[C@H](C)[C@@H]1NC(=O)[C@H](CC(C)C)N(C)C(=O)[C@H](CC(C)C)NC(=O)[C@H](C)N(C)C(=O)C[C@@H](C)NC(=O)[C@H](CC(C)C)NC(=O)[C@H](CC(C)C)N(C)C(=O)CN(C)C(=O)[C@H](C(C)C)NC(=O)[C@H]([C@@H](C)CC)N(C)C(=O)[C@H](COC(C)(C)C)NC(=O)[C@H](CC(C)C)N(C)C(=O)CCNC(=O)[C@H](Cc2ccccc2)N(C)C1=O [pd007] (cyclo(I[NMeF][βAla][NMeL]S(tBu)[NMeI]V[Sar][NMeL]L[d(β3hA)][NMeA]L[NMeL])) as the compound, how does the microsomal CLint at 1 µM [1] read?
**A.** The microsomal CLint at 1 µM was 40.8 µL/min/mg.

**Q.** And the “Mouse Hepatic Microsome CLh,int NADPH(-)” value [1]?
**A.** The value was 34.9 µL/min/mg Protein.

**Q.** What about the “Caco2 Papp (10^-6 cm/sec)” value (Caco-2 cells) of the same compound?
**A.** Its value is 0.11 10^-6 cm/sec.

**Q.** What about the Papp A→B [2] of the same compound?
**A.** The Papp A→B was 0.11 ×10⁻⁶ cm/s.

**Q.** For CC[C@@H]1NC(=O)[C@H](Cc2ccccc2)N(C)C(=O)[C@H](COC(C)(C)C)NC(=O)[C@H](CC(C)C)N(C)C(=O)[C@H](C(C)C)NC(=O)CN(C)C(=O)[C@H]([C@@H](C)O)NC(=O)[C@H](CC(C)C)N(C)C(=O)[C@H](C(C)C)NC(=O)[C@H](Cc2ccccc2)N(C)C(=O)[C@H](C)N(C)C(=O)[C@@H](C)NC(=O)C[C@@H](C)NC(=O)[C@H](C(C)C)N(C)C1=O [pd008] (cyclo([Abu][NMeV][d(β3hA)][dA][NMeA][NMeF]V[NMeL]T[Sar]V[NMeL]S(tBu)[NMeF])), which microsomal CLint at 1 µM [1] is on record?
**A.** Its microsomal CLint at 1 µM is 13.4 µL/min/mg.

**Q.** And the “Mouse Hepatic Microsome CLh,int NADPH(-)” value [1]?
**A.** The value was 11.8 µL/min/mg Protein.

**Q.** And the “Caco2 Papp (10^-6 cm/sec)” value (Caco-2 cells)?
**A.** The value was 0.04 10^-6 cm/sec.

**Q.** What about the Papp A→B [2] of the same compound?
**A.** Its Papp A→B is 0.04 ×10⁻⁶ cm/s.
